ChEMBL document CHEMBL1151801, “Synthesis of new indeno[1,2-e]pyrimido[4,5-b][1,4]diazepine-5,11-diones as potential antitumor agents” (2008)
Active and inactive are the calls of the source. The calls are words filed in the database; no cut-off is given here.

The compounds below were run on NCI60 (assay: Antitumor activity against human NCI60 cells at 1 uM).
Format: functional, cell-based

Compound	Activity
COc1ccc(C2Nc3nc(SC)n(C)c(=O)c3NC3=C2C(=O)c2ccccc23)cc1 (stereo not given)	inactive
COc1ccc(C2Nc3nc(OC)n(C)c(=O)c3NC3=C2C(=O)c2ccccc23)cc1 (stereo not given)	inactive
CSc1nc2c(c(=O)n1C)NC1=C(C(=O)c3ccccc31)C(c1ccccc1)N2 (stereo not given)	inactive
COc1ccc(C2Nc3nc(SC)[nH]c(=O)c3NC3=C2C(=O)c2ccccc23)cc1 (stereo not given)	inactive
COc1nc2c(c(=O)n1C)NC1=C(C(=O)c3ccccc31)C(c1ccccc1)N2 (stereo not given)	inactive
